What was measured:
Cochliobolus miyabeanus = assay: In vivo protective test on Cochliobolus miyabeanus (rice); settings: evaluated 4 days after inoculation
Leptosphaeria nodorum = assay: In vivo preventive test on Leptosphaeria nodorum (wheat); settings: 500 ppm of active ingredient, evaluated 7-9 days after inoculation
Text: One day after this treatment, the plants are inoculated with an aqueous spore suspension of Leptosphaeria nodorum.

aflatoxines production = assay: microbe, parasite or virus in culture; format: cell-based, Aspergillus parasiticus
Sphaerotheca fuliginea = assay: In vivo preventive test on Sphaerotheca fuliginea (cucumber); settings: 500 ppm of active ingredient, evaluated 7 days after inoculation
Text: One day after this treatment, the plants are inoculated with an aqueous spore suspension of Sphaerotheca fuliginea.

[1] = logP by HPLC on reversed-phase column (C 18), EEC Directive 79/831 Annex V.A8; format: physicochemical
Method: In table 1, the logP values were determined in accordance with EEC Directive 79/831 Annex V.A8 by HPLC (High Performance Liquid Chromatography) on a reversed-phase column (C 18), using the method described below: Temperature: 40° C.; […]

Alternaria solani = assay: In vivo preventive test on Alternaria solani (tomato); settings: 500 ppm of active ingredient, evaluated 7 days after inoculation
Text: One day after this treatment, the plants are inoculated with an aqueous spore suspension of Alternaria solani.

[2] = system: Blumeria graminis f.sp. hordei; assay: In vivo preventive test on Blumeria graminis (barley); settings: 500 ppm of active ingredient, evaluated 7 days after inoculation
Text: (§1) To test for preventive activity, young plants are sprayed with the preparation of active compound or active compound combination at the stated rate of application.

Pyrenophora teres = assay: In vivo preventive test on Pyrenophora teres (barley); settings: 500 ppm of active ingredient, evaluated 7-9 days after inoculation
Text: One day after this treatment, the plants are inoculated with an aqueous spore suspension of Pyrenophora teres.

Fusarium graminearum = assay: microbe, parasite or virus in culture; format: cell-based
[3] = system: Fusarium nivale (var. majus); assay: In vivo preventive test on Fusarium nivale (wheat); settings: 500 ppm of active ingredient, evaluated 5 days after inoculation
Text: as §1

Botrytis cinerea = assay: In vivo preventive test on Botrytis cinerea (beans); settings: preventive, beans, lesion size 2 days after inoculation
Text: To test for preventive activity, young plants are sprayed with the preparation of active compound. After the spray coating has dried on, 2 small pieces of agar covered with growth of Botrytis cinerea are placed on each leaf.

Venturia inaequalis = assay: In vivo preventive test on Venturia inaequalis (apple scab); settings: 100 ppm of active ingredient, evaluated 10 days after inoculation
Septoria tritici = assay: In vivo preventive test on Septoria tritici (wheat); settings: 500 ppm of active ingredient, evaluated 21 days after inoculation
Text: as §1

Uromyces appendiculatus = assay: In vivo preventive test on Uromyces appendiculatus (beans); settings: 100 ppm of active ingredient, evaluated 10 days after inoculation
Puccinia triticina = assay: In vivo preventive test on Puccinia triticina (wheat); settings: dose 500 ppm of active ingredient, evaluated 8 days after inoculation
[4] = dose 250 ppm of active ingredient

Row | Compound | Efficacy (Leptosphaeria nodorum) [%] | % Inhibition of Aflatoxin at 50 μM (aflatoxines production) [%] | Efficacy (Sphaerotheca fuliginea) [%] | logP [1] | Efficacy (Alternaria solani) [%] | Efficacy [2] [%] | Efficacy (Pyrenophora teres) [%] | % Inhibition of fungal growth at 50 μM (Fusarium graminearum) [%] | Efficacy [3] [%] | Efficacy (Botrytis cinerea; 100 ppm of active ingredient) [%] | Efficacy (Venturia inaequalis) [%] | Efficacy (Septoria tritici) [%] | Efficacy (Uromyces appendiculatus) [%] | also measured
1 | COC(c1ccc(Cl)cc1Cl)C(C)NC(=O)c1cn(C)nc1C(F)F (centres unmarked) [1.14 from WO-2008/148570, N-[1-(2,4-dichlorophenyl)-1-methoxypropan-2-yl]-3-(difluoromethyl)-1-methyl-1H-pyrazole-4-carboxamide, reference compound] |  |  |  |  |  |  |  |  |  |  |  |  |  | Efficacy (Cochliobolus miyabeanus; dose 10 ppm of active ingredient): 20%; Efficacy (Cochliobolus miyabeanus; dose 50 ppm of active ingredient): 80%; Efficacy (Cochliobolus miyabeanus; dose 100 ppm of active ingredient): 92%; Efficacy (Cochliobolus miyabeanus; [4]): 98%; Efficacy (protection) (Cochliobolus miyabeanus; protective, 10 ppm of active ingredient (lowest of 250, 100, 50 and 10 ppm)): less than 20%
2 | Cn1nc(C(F)F)c(C(=O)N(CC(F)(F)c2ccccc2Cl)C2CC2)c1F [Example 44] | 100 | 100 | 100 | 3.39 | 100 | 100 | 100 | 100 | 100 | 99 | 100 | 100 |  | 
3 | CC(Cc1cccc(Cl)c1)NC(=O)c1c(C(F)F)nn(C)c1F (centres unmarked) [Example 50] |  | 100 |  | 3.02 | 100 |  | 100 | 100 |  |  |  |  |  | Efficacy (Cochliobolus miyabeanus; [4]): 90%
4 | CC(Cc1ccc(Cl)cc1)N(C(=O)c1c(C(F)F)nn(C)c1F)C1CC1 (centres unmarked) [Example 55] | 95 | 100 | 100 | 3.73 | 95 | 100 | 100 | 100 | 100 | 100 | 100 | 100 | 96 | 
5 | Cn1nc(C(F)F)c(C(=O)NCCc2ccc(Cl)cc2Cl)c1F [Example 65] |  | 100 | 79 | 3.09 | 90 | 95 | 100 | 100 |  |  | 100 | 100 | 100 | 
6 | Cn1nc(C(F)F)c(C(=O)NCCc2ccc(Cl)cc2Cl)c1Cl [Example 66] |  | 100 |  | 3.31 |  | 90 |  | 100 | 100 |  | 100 | 71 | 98 | 
7 | COC(CN(C(=O)c1c(C(F)F)nn(C)c1F)C1CC1)c1ccc(Cl)cc1Cl (centres unmarked) [Example 80] | 100 | 100 | 100 |  | 95 |  | 100 | 100 |  | 100 | 100 |  | 80 | Efficacy (Puccinia triticina): 80%
8 | Cn1nc(C(F)F)c(C(=O)N(CC(F)(F)c2ccc(Cl)cc2Cl)C2CC2)c1F [Example 86] | 100 | 100 | 100 | 3.94 | 100 | 100 | 100 | 98 | 93 | 100 | 100 | 80 |  | 
9 | CC(Cc1cc(Cl)ccc1Cl)NC(=O)c1c(C(F)F)nn(C)c1F (centres unmarked) [Example 92] |  | 100 | 88 | 3.37 | 100 |  | 100 | 100 |  |  |  |  |  | Efficacy (Cochliobolus miyabeanus; [4]): 90%
10 | CC(Cc1c(Cl)cccc1Cl)N(C(=O)c1c(C(F)F)nn(C)c1F)C1CC1 (centres unmarked) [Example 115] | 95 | 100 | 100 | 4.06 | 100 | 100 | 100 | 100 | 100 | 93 | 100 |  | 98 | Efficacy (Puccinia triticina): 90%
11 | CC(Cc1c(F)cccc1Cl)N(C(=O)c1c(C(F)F)nn(C)c1F)C1CC1 (centres unmarked) [Example 120] | 100 | 100 | 100 | 3.76 | 100 | 94 | 100 | 100 | 100 | 94 | 100 | 100 | 100 | Efficacy (Puccinia triticina): 70%
12 | Cc1cc(Br)ccc1C(=O)C(C)(C)NC(=O)c1c(C(F)F)nn(C)c1F [Example 133] | 100 | 100 | 100 | 3.37 | 95 | 100 | 100 | 100 | 100 | 100 | 100 | 80 |  | 
13 | Cn1nc(C(F)F)c(C(=O)NC(C)(C)C(=O)c2ccc3ccccc3c2)c1F [Example 160] | 70 | 100 | 95 | 2.92 | 95 | 70 | 100 | 100 | 83 | 100 | 100 | 70 |  | 
14 | CC(Cc1ncc(C(F)(F)F)cc1Cl)NC(=O)c1c(C(F)F)nn(C)c1F (centres unmarked) [Example 190, N-{1-[3-chloro-5-(trifluoromethyl)pyridin-2-yl]propan-2-yl}-3-(difluoromethyl)-5-fluoro-1-methyl-1H-pyrazole-4-carboxamide] |  |  | 100 |  | 100 | 100 | 100 |  | 88 |  | 100 | 100 |  | inhibition at 50 µM (aflatoxines production; Aspergillus parasiticus, 168 h, read-out: % Inhibition of Aflatoxin at 50 μM): 100%; chromatographic logP ([1]; logP): 3.08; inhibition at 50 µM (Fusarium graminearum; Fusarium graminearum, 168 h, read-out: % Inhibition of fungal growth at 50 μM): 100%; pest or weed control at 100 ppm (Botrytis cinerea; Botrytis cinerea, 48 h, 100 ppm of active ingredient, read-out: Efficacy): 96%; pest or weed control at 500 ppm (Botrytis cinerea; Botrytis cinerea, 48 h, 500 ppm of active ingredient, read-out: Efficacy): 100%
15 | Cn1nc(C(F)F)c(C(=O)N(C2CC2)C2CCCC2c2ccccc2Cl)c1F (centres unmarked) [Example 210] | 90 | 100 | 100 | 4.31 | 100 | 100 | 100 | 100 | 86 | 100 | 100 | 100 |  | 
16 | Cn1nc(C(F)F)c(C(=O)NC2CC2c2ccc(Cl)cc2)c1F (centres unmarked) [Example 224] | 80 | 100 | 84 | 2.61 | 95 |  | 100 | 100 |  |  | 100 |  | 100 | 

— patent publication US9232799B2, “N-[(het)arylethyl)] pyrazole(thio)carboxamides and their heterosubstituted analogues” (BAYER INTELLECTUAL PROPERTY GMBH, priority 2010, dated 2016)
